Results from US5981521A, “Tetrahydroisoquinoline derivatives as LHRH antagonists” (Abbott Laboratories, priority 1998, dated 1999).
Counter-ions that a name gives are not always drawn.

Target: T1, LHRH rat pituitary receptor (Rattus norvegicus, UniProt P30969)
T1 construct: from tissue; host or cells: rat pituitary
T1 sequence (P30969 1-327): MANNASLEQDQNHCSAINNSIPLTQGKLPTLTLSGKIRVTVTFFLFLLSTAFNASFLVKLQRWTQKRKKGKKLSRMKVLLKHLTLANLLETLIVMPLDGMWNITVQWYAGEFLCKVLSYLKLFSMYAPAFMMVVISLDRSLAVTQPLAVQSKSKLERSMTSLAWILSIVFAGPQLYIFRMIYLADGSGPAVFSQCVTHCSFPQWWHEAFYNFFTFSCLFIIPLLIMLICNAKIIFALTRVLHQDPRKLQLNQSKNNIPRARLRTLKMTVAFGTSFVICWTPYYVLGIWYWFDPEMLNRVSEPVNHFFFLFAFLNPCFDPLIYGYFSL
Assay: LHRH rat pituitary receptor binding
Conditions: Table 1: compounds of formula (V), by n and R1
Method in brief: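 Rat pituitary receptor binding of antagonists, run per a literature procedure. Reported as pKi, the negative log of the equilibrium dissociation constant.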

Structure (SMILES)	pKI	Ki [nM]
COc1cc2c(cc1OC)C(CCCCNCC(C)C)N(CCCC(CCCNC(=O)CCc1ccc(F)cc1)(c1ccccc1)c1ccccc1)CC2 (stereo not shown) [Example 29, 7-[N-3-(4-Fluorophenyl)propionyl]-1-[N-(1,2,3,4-tetrahydro-1-[4-(N-isobutylamino)butyll-6,7-dimethoxyisoguinolinyl)1-4.4-diphenylheptanedihydrochloride]	8.60	–
COc1cc2c(cc1OC)C(C1CCC(CN)CC1)N(CCCC(CCCNC(=O)CCc1ccc(F)cc1)(c1ccccc1)c1ccccc1)CC2 (stereo not shown) [Example 37, 7-[N-3-(4-Fluorophenyl)propionyl]-1-[N-(1,2,3,4-tetrahydro-1-(4-aminomethylcyclohexyl)-6,7-dimethoxyisoquinolinyl)1-4.4-diphenylheptanedihydrochloride]	–	3.98
COc1cc2c(cc1OC)C(C1CC1)N(CCCC(CCCNC(=O)CCc1ccc(F)cc1)(c1ccccc1)c1ccccc1)CC2 (stereo not shown) [Example 4, 7-[N-3-(4-Fluorolphenyl)Propionyl]1-[N-(1,2,3,4-tetrahydro-1-cyclopropyl-6.7-dimethoxyisoquinolinyl)]-4,4-diphenylheptane hydrochloride]	–	0.135
COc1cc2c(cc1OC)C(CN)N(CCCC(CCCNC(=O)CCc1ccc(F)cc1)(c1ccccc1)c1ccccc1)CC2 (stereo not shown) [Example 22, 7-[N-3-(4-Fluorophenyl)propionyl]amino-1-[N-(1,2.3,4-tetrahydro-1-aininomethyl-6,7-dimethoxyisoguinolinyl)1-4.4-diphenylheptanedihydrochloride]	9.24	–
COc1cc2c(cc1OC)C(C1CCC1)N(CCCC(CCCNC(=O)CCc1ccc(F)cc1)(c1ccccc1)c1ccccc1)CC2 (stereo not shown) [Example 9, 7-[N-3-(4-Fluorophenyl)propionyl]amino-1-[N-(1,2,3,4-tetrahydro-1-cyclobutyl-6,7-dimethoxnisoguinolinyl)]1-4,4-diphenalhentane hydrochloride]	10.07	–
COc1cc2c(cc1OC)C(CC#N)N(CCCC(CCCNC(=O)CCc1ccc(F)cc1)(c1ccccc1)c1ccccc1)CC2 (stereo not shown) [Example 11, 7-[N-3-(4-Fluorophenyl)propionyl]amino-1-[N-(1,2,3,4-tetrahydro-1-cyanomethyl-6,7-dimethoxyisoguinolinyl)1-4.4-diphenylheptane hydrochloride]	8.71	–

More lines, now with the values ahead:

pKI	Ki [nM]	Structure (SMILES)
9.60	–	COc1cc2c(cc1OC)C(CCCCNC1CCC1)N(CCCC(CCCNC(=O)CCc1ccc(F)cc1)(c1ccccc1)c1ccccc1)CC2 (stereo not shown) [Example 28, 7-[N-3-(4-Fluorophenyl)propionyl]-1-[N-(1,2,3,4-tetrahydro-1-(4-N-(cyclobutylamino)butyl)-6,7-dimethoxyisoquinolinyl)1-4.4-diphenylheptanedihydrochloride]
8.56	–	COc1cc2c(cc1OC)C(Cc1ccccc1)N(CCCC(CCCNC(=O)CCc1ccc(F)cc1)(c1ccccc1)c1ccccc1)CC2 (stereo not shown) [Example 17, 7-[N-3-(4-Fluorophenyl)propionyl]amino-1-[N-(1,2,3,4-tetrahydro-1-benzyl-6,7-dimethoxyisoguinolinyl)1-4.4-diphenylheptane hydrochloride]
–	2.75	COc1cc2c(cc1OC)C(CCCCNC(C)C)N(CCCC(CCCNC(=O)CCc1ccc(F)cc1)(c1ccccc1)c1ccccc1)CC2 (stereo not shown) [Example 26, 7-[N-3-(4-Fluorophenyl)propionyl]-1-[N-(1,2,3,4-tetrahydro-1-(4(N-isopropylaminobutyl)-6,7-dimethoxyisoguinolinyl)1-4.4-diohenylheptanedihydrochloride]
10.0	–	COc1cc2c(cc1OC)C(CCCCNCC1CC1)N(CCCC(CCCNC(=O)CCc1ccc(F)cc1)(c1ccccc1)c1ccccc1)CC2 (stereo not shown) [Example 27]
8.80	–	COc1cc2c(cc1OC)C(C)N(CCCC(CCCNC(=O)CCc1ccc(F)cc1)(c1ccccc1)c1ccccc1)CC2 (racemic) [Example 1, (R,S) 7-[N-3-(4-Fluorophenyl)propionyl]amino-1-[N-(1,2,3,4-tetrahydro-1-methyl-6,7-dimethoxyisoquinolinyl]1-4,4-diphenylheptane hydrochloride]

Same assay, conditions: Table 2: compounds of formula (VI), by isoquinolinyl moiety R

Structure (SMILES)	Ki [nM]
CC1c2cc(O)c(O)cc2CCN1CCCC(CCCNC(=O)CCc1ccc(F)cc1)(c1ccccc1)c1ccccc1 (stereo not shown) [Example 46, 7-[N-3-(4-Fluorophenyl)propionyl]-1-UN-(1,2,3,4-tetrahydro-1-methyl-6,7-dihydroxyisoguinolinyl)1-4.4-diphenylheptane hydrochloride]	15.5
CC1c2ccccc2CCN1CCCC(CCCNC(=O)CCc1ccc(F)cc1)(c1ccccc1)c1ccccc1 (stereo not shown) [Example 47, 7-[N-3-(4-Fluorophenyl)propionyl]-1-[N-(1,2,3,4-tetrahydro-1-methylisoquinolinyl)1-4.4-diphenylheptane hydrochloride]	14.5
COc1cc2c(cc1OC)CN(CCCC(CCCNC(=O)CCc1ccc(F)cc1)(c1ccccc1)c1ccccc1)C(C)C2 (stereo not shown) [Example 66, 7-[N-3-(4-Fluorophenyl)propionyl]-1-[N-(1,2,3,4-tetrahydro-3-mekyl-6,7-dimethoxyisoguinolinyl)]-4,4-diphenylheptane hydrochloride]	0.617

Results, then the molecule that gave them:

Ki [nM]	Structure (SMILES)
0.0363	COc1cc2c(cc1OC)C(C)N(CCCC(CCCNC(=O)CCc1ccc(F)cc1)(c1ccccc1)c1ccccc1)C(C)C2 (stereo not shown) [Example 65, 7-[N-3-(4-Fluorophenyl)propionyl]-1-[N-(1,2,3,4-tetrahydro-1.3-dimethyl-6,7-dimethoxyisoguinolinyl)1-4.4-diphenylheptane hydrochloride]
12.6	COc1cc2c(cc1OC)C(C)N(CCCC(CCCNC(=O)CCc1ccc(F)cc1)(c1ccccc1)c1ccccc1)CCC2 (stereo not shown) [Example 69, 7-[N-3-(4-Fluorophenyl)propionyl]-1-[N-(2,3,4,5-tetrahydro-1-methyl-7.8-dimethoxy-I H-2-benzazepinyl)1-4.4-diphenylheptane hydrochloride]
